Patent publication US10723741B1, “DNA polymerase IIIC inhibitors and use thereof” (Acurx Pharmaceuticals, LLC, priority 2018, dated 2020)
Converted amounts (≈) assume the structure as drawn. Counter-ions that a name gives are not always drawn. Like-named read-outs stand apart in the source and are kept apart here.

What was measured:
Format in all cases: cell-based
[1] = test system: Staphylococcus aureus NRS384 (MRSA); test: Broth microdilution MIC, S. aureus NRS384 (MRSA); details: Staphylococcus aureus
In short: (§1)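 Broth microdilution in strain-specific test medium with ~5.0×10^5 cfu/ml inoculum, 1% DMSO and two-fold compound dilutions from 64 to 0.0625 μg/ml. Plates were held 20 hours at 37° C in ambient air. S. pneumoniae colonies were grown beforehand on blood agar in 5% CO2.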

[2] = test system: Escherichia coli ATCC 25922; test: Broth microdilution MIC, E. coli ATCC 25922 (MHIIB w & w/o 4 mM EDTA); details: for MIC: Escherichia coli, read-out: MIC E. coli ATCC 25922; for MIC E. coli ATCC 25922 + 4 mM EDTA: with 4 mM EDTA
In short: as §1

[3] = test system: Enterococcus faecium ATCC 700221 (VRE); test: Broth microdilution MIC, E. faecium ATCC 700221 (VRE); details: Enterococcus faecium
In short: as §1

[4] = test system: Streptococcus pneumoniae ATCC 49619; test: Broth microdilution MIC, S. pneumoniae ATCC 49619; details: read-out: MIC S. pneumoniae ATCC 49619
In short: as §1

[5] = test system: Bacillus subtilis ATCC 6633; test: Broth microdilution MIC, B. subtilis ATCC 6633; details: read-out: MIC B. subtilis ATCC 6633
In short: as §1

[6] = test system: Enterococcus faecalis ATCC 29212; test: Broth microdilution MIC, E. faecalis ATCC 29212; details: read-out: MIC E. faecalis ATCC 29212
In short: as §1

[7] = test system: Staphylococcus aureus ATCC 29213 (MSSA); test: Broth microdilution MIC, S. aureus ATCC 29213 (MSSA); details: read-out: MIC S. aureus ATCC 29213 (MSSA)
In short: as §1

[8] = broth microdilution, 37° C., 20 hours, read-out: MIC NRS 384 (MRSA)
[9] = ATCC25922, without EDTA, broth microdilution, 37° C., 20 hours
[10] = broth microdilution, 37° C., 20 hours
[11] = broth microdilution, 37° C., 20 hours, read-out: MIC E. faecium ATCC 700221 (VRE)
[12] = ATCC49619, broth microdilution, 37° C., 20 hours
[13] = ATCC6633, broth microdilution, 37° C., 20 hours
[14] = ATCC29212, broth microdilution, 37° C., 20 hours

| SMILES | MIC [1, 8] [µg/mL] | MIC [2, 9] [µg/mL] | MIC E. coli ATCC 25922 + 4 mM EDTA [2, 10] [µg/mL] | MIC [3, 11] [µg/mL] | MIC [4, 12] [µg/mL] | MIC [5, 13] [µg/mL] | MIC [6, 14] [µg/mL] | MIC [7, 10] [µg/mL] | MIC ([1]; S. aureus NRS 384, broth microdilution, 37° C., 20 hours, read-out: MIC NRS 384 (MRSA)) [µg/mL] | MIC ([1]; 20 h, read-out: MIC NRS 384 (MRSA)) [µg/mL] | MIC ([2]; ATCC25922, 20 h) [µg/mL] | MIC ([3]; 20 h, read-out: MIC E. faecium ATCC 700221 (VRE)) [µg/mL] | MIC ([4]; ATCC49619, 20 h) [µg/mL] | MIC ([5]; ATCC6633, 20 h) [µg/mL] | MIC ([6]; ATCC29212, 20 h) [µg/mL] | MIC ([7]; 20 h) [µg/mL] | MIC ([1]; broth microdilution, MHIIB, 37° C., 20 hours, read-out: MIC against S. aureus NRS 384 (MRSA)) [µg/mL] | MIC ([3]; broth microdilution, MHIIB, 37° C., 20 hours, read-out: MIC against E. faecium ATCC 700221 (VRE)) [µg/mL] |
| --- | --- | --- | --- | --- | --- | --- | --- | --- | --- | --- | --- | --- | --- | --- | --- | --- | --- | --- |
| O=c1[nH]c(NCc2ccc(Cl)c(Cl)c2)nc2cn(CC3CCC3)nc12 [Compound 135, 2-(Cyclobutylmethyl)-5-((3,4-dichlorobenzyl)amino)-2H-pyrazolo[4,3-d]pyrimidin-7(6H)-one] | 8 (≈ 21.1 µM) | > 64 | 8 | 8 (≈ 21.1 µM) | 16 (≈ 42.3 µM) | 4 (≈ 10.6 µM) | > 64 | 32 (≈ 84.6 µM) | – | – | – | – | – | – | – | – | – | – |
| CN1CCC(O)(Cn2ncc3nc(NCc4ccc(Cl)c(Cl)c4)[nH]c(=O)c32)CC1.Cl [Compound 241, 5-((3,4-dichlorobenzyl)amino)-1-((4-hydroxy-1-methylpiperidin-4-yl)methyl)-1H-pyrazolo[4,3-d]pyrimidin-7(6H)-one hydrochloride] | 64 | > 64 | >64 | 64 | 8 | 4 | 32 | 32 | – | – | – | – | – | – | – | – | – | – |
| O=c1[nH]c(NCc2ccc(Cl)c(Cl)c2)nc2cnn(CCCCO)c12 [Compound 89, 5-((3,4-Dichlorobenzyl)amino)-1-(4-hydroxybutyl)-1H-pyrazolo[4,3-d]pyrimidin-7(6H)-one] | 2 (≈ 5.23 µM) | > 64 | 64 | 1 (≈ 2.62 µM) | 2 (≈ 5.23 µM) | 1 (≈ 2.62 µM) | 4 (≈ 10.5 µM) | 4 (≈ 10.5 µM) | – | – | – | – | – | – | – | – | – | – |
| Cl.O=c1[nH]c(NCc2ccc(Cl)c(Cl)c2)nc2cnn(CC3CCNC3)c12 (stereo not drawn) [Compound 155, 5-((3,4-dichlorobenzyl)amino)-1-(pyrrolidin-3-ylmethyl)-1H-pyrazolo[4,3-d]pyrimidin-7(6H)-one hydrochloride] | 64 | > 64 | >64 | 32 | 8 | 4 | 64 | 32 | – | – | – | – | – | – | – | – | – | – |
| O=c1[nH]c(NCc2ccc(Cl)c(Cl)c2)nc2c(F)nn(CCOCCO)c12 [Compound 302, 5-[(3,4-Dichlorophenyl)methylamino]-3-fluoro-1-[2-(2-hydroxyethoxy)ethyl]-6H-pyrazolo[4,3-d]pyrimidin-7-one] | – | > 64 | >64 | 1 (≈ 2.4 µM) | 2 (≈ 4.8 µM) | 0.5 (≈ 1.2 µM) | 2 (≈ 4.8 µM) | 2 (≈ 4.8 µM) | 2 (≈ 4.8 µM) | – | – | – | – | – | – | – | – | – |
| Cc1cc(CNc2nc3cnn(C)c3c(=O)[nH]2)ccc1Cl [Compound 35, 5-((4-Chloro-3-methylbenzyl)amino)-1-methyl-1H-pyrazolo[4,3-d]pyrimidin-7(6H)-one] | 2 (≈ 6.58 µM) | > 64 | >64 | 4 (≈ 13.2 µM) | 4 (≈ 13.2 µM) | 2 (≈ 6.58 µM) | 8 (≈ 26.3 µM) | 4 (≈ 13.2 µM) | – | – | – | – | – | – | – | – | – | – |
| O=c1[nH]c(NCc2ccc(Cl)c(Cl)c2)nc2cn(C3CCNC3)nc12 (stereo not drawn) [Compound 215, 5-((3,4-Dichlorobenzyl)amino)-2-(pyrrolidin-3-yl)-2H-pyrazolo[4,3-d]pyrimidin-7(6H)-one TFA salt] | – | – | 64 | – | – | – | – | – | – | > 64 | > 64 | > 64 | 16 | 64 | > 64 | > 64 | – | – |
| O=c1[nH]c(NCc2ccc(Cl)c(Cl)c2)nc2cnn(C3COC3)c12 [Compound 142, 5-((3,4-Dichlorobenzyl)amino)-1-(oxetan-3-yl)-1H-pyrazolo[4,3-d]pyrimidin-7(6H)-one] | 2 (≈ 5.46 µM) | > 64 | >64 | 2 (≈ 5.46 µM) | 4 (≈ 10.9 µM) | 1 (≈ 2.73 µM) | 4 (≈ 10.9 µM) | 4 (≈ 10.9 µM) | – | – | – | – | – | – | – | – | – | – |
| O=c1[nH]c(NCc2ccc(Cl)c(Cl)c2)nc2cnn(Cc3ncco3)c12 [Compound 144, 5-((3,4-Dichlorobenzyl)amino)-1-(oxazol-2-ylmethyl)-1H-pyrazolo[4,3-d]pyrimidin-7(6H)-one] | 4 (≈ 10.2 µM) | > 64 | >64 | 2 (≈ 5.11 µM) | 8 (≈ 20.4 µM) | 2 (≈ 5.11 µM) | 16 (≈ 40.9 µM) | 4 (≈ 10.2 µM) | – | – | – | – | – | – | – | – | – | – |
| O=c1[nH]c(NCc2ccc(Cl)c(Cl)c2)nc2cnn(CC3CCC3)c12 [Compound 134, 1-(Cyclobutylmethyl)-5-((3,4-dichlorobenzyl)amino)-1H-pyrazolo[4,3-d]pyrimidin-7(6H)-one] | 1 (≈ 2.64 µM) | > 64 | >64 | 1 (≈ 2.64 µM) | 8 (≈ 21.1 µM) | 0.5 (≈ 1.32 µM) | > 64 | 1 (≈ 2.64 µM) | – | – | – | – | – | – | – | – | ≤ 1 | ≤ 1 |
| Cn1nc(C2C=CCO2)c2nc(NCc3ccc(Cl)c(Cl)c3)[nH]c(=O)c21 (stereo not drawn) [Compound 46, 5-((3,4-dichlorobenzyl)amino)-3-(2,5-dihydrofuran-2-yl)-1-methyl-1H-pyrazolo[4,3-d]pyrimidin-7(6H)-one] | 8 (≈ 20.4 µM) | > 64 | >64 | 8 (≈ 20.4 µM) | 16 (≈ 40.8 µM) | 4 (≈ 10.2 µM) | 16 (≈ 40.8 µM) | 4 (≈ 10.2 µM) | – | – | – | – | – | – | – | – | – | – |
| Cn1ncc2nc(NCc3ccc(Cl)c(F)c3)[nH]c(=O)c21 [Compound 1, 5-((4-chloro-3-fluorobenzyl)amino)-1-methyl-1H-pyrazolo[4,3-d]pyrimidin-7(6H)-one] | 8 (≈ 26 µM) | > 64 | 32 | 8 (≈ 26 µM) | 4 (≈ 13 µM) | 4 (≈ 13 µM) | 16 (≈ 52 µM) | 8 (≈ 26 µM) | – | – | – | – | – | – | – | – | – | – |
| Cl.O=c1[nH]c(NCc2ccc(Cl)c(Cl)c2)nc2cnn(Cc3coc(C4CCCNC4)n3)c12 (stereo not drawn) [Compound 173, 5-((3,4-dichlorobenzyl)amino)-1-((2-(piperidin-3-yl)oxazol-4-yl)methyl)-1H-pyrazolo[4,3-d]pyrimidin-7(6H)-one hydrochloride] | 32 | > 64 | 64 | 32 | 8 | 8 | 32 | 32 | – | – | – | – | – | – | – | – | – | – |
| Cl.N=C(N)NCCOCCn1ncc2nc(NCc3ccc(Cl)c(Cl)c3)[nH]c(=O)c21 [Compound 293, 1-(2-(2-(5-((3,4-Dichlorobenzyl)amino)-7-oxo-6,7-dihydro-1H-pyrazolo[4,3-d]pyrimidin-1-yl)ethoxy)ethyl)guanidine hydrochloride] | 16 | > 64 | 32 | > 64 | 16 | 8 | 64 | 16 | – | – | – | – | – | – | – | – | – | – |
